Laboratory results: patent publication US20220226473A1, “Nucleic acid nanocarrier drug and preparation method thereof, pharmaceutical composition and application thereof” (BAI YAO ZHI DA (BEIJING) NANOBIO TECHNOLOGY CO., LTD., priority 2018, published 2022)
Read-outs that look alike come from different tables or passages of the source. {Biotin} = biotin (Bio) of the a-strand; {Bio} = biotin of the strand

What was measured:
SH-SY5Y cells [1] = assay: Cytotoxicity of RNAh-Biotin-quasar670-aspirin nanoparticles, CTG kit; format: cell-based
Procedure: Experiment purpose: an effect of a compound on proliferation of a target tumor cell line is researched.
Experiment design: the compound is diluted in 8 concentration gradients and sequentially added to the target tumor cell line and incubated for 72 hours, the CTG kit is used to detect the effect of the compound on the cell proliferation.

HL60 cells = assay: Cytotoxicity of RNAh-Bio-670-EPB nanoparticles, CellTiter-Glo; format: cell-based
Procedure: Preparing a freshly prepared reagent into a corresponding volume container, and adding PBS to be quantified to 10 μM.
Cells are cultured at 37 DEG C. and 5% CO2 in a corresponding basal medium in which 10% FBS and 1% PS are respectively added. The cell density used in the experiment is above 80%. The cells are collected, and centrifuged at 1000 rpm for 4 minutes, the medium is resuspended, the cell concentration is adjusted, and it is added to the 96-well plate in a volume of 3000 cells per 50 μL, and each group has 3 replicate wells.
After 24 hours, the compound solution is transferred to each well by 50 μL/well.
The above cells after administration are cultured for 72 hours under a condition of 37 DEG C and 5% CO2.
The well plate is brought to a room temperature in advance and stands for 30 minutes, 100 μL of a CellTiter-Glo® reagent is added to each well of the well plate and mixed for 2 minutes on a shaker to promote cell lysis. The Perkin Elmer Envision 2104 Multilabel Reader is used to read values and the values are recorded.
The acquired experiment data is analyzed and processed by using excel software, and GraphPad Prism 5 software is used for curve fitting analysis.

BXPC3 cells = assay: Cytotoxicity of RNAh-Bio-670-gemcitabine nanoparticles; format: cell-based; conditions: Homo sapiens, BXPC-3
From the text: I. Samples to be tested: small molecular drug gemcitabine and […] nanoparticles

SH-SY5Y cells [2] = assay: Cytotoxicity in SH-SY5Y cells, CellTiter-Glo (Embodiment 8); format: cell-based
Procedure: (1) Using the RPMI1640+10% FBS+1% PS medium to culture the SH-SY5Y cells at 37 DEG C and 5% CO2.
(2) Collecting the cells, centrifuging at 800 rpm for 5 minutes, resuspending the medium, adjusting the cell concentration, and adding to the 96-well plate in a volume of 5000 cells per 90 μL.
(3) Diluting a sample to be tested with the culture medium on the next day, respectively adding 200 nM to each sample, herein each sample has 4 replicate wells for replication.
(4) After being cultured for 72 hours, adding 100 μL of the CTG reagent to each well, shaking for 2 minutes, and standing at the room temperature for 10 minutes, herein a whole process is protected from light.
(5) Finally using Soft Max Pro5 software to read.

MOLT4 cells = assay: Cytotoxicity of RNAh-Bio-670-MTX nanoparticles, CTG; format: cell-based, human
Procedure: 1) Using the RPMI1640+10% FBS+1% PS medium to culture the MOLT4 cells at 37 DEG C. and 5% CO2.
2) Collecting the cells, centrifuging at 800 rpm for 5 minutes, resuspending the medium, adjusting the cell concentration, and adding to the 96-we plate in a volume of 5000 cells per 90 μL. […]
4) After being cultured for 72 hours, adding 100 μL of the CTG reagent to each well, shaking for 2 minutes, and standing at the room temperature for 10 minutes, herein a whole process is protected from light.
5) Finally using Soft Max Pro5 software to read.

SGC-7901 cells = assay: Cytotoxicity of DNAh-Biotin-EGFRapt-Cy5-THP nanoparticles; format: cell-based, human
Procedure: (§1) 2) adjusting the cell density to 2.22×10^4/mL with a growth medium:
(§2) 3) planting 90 μL/well of cell suspension into the 96-well plate, herein the number of cells per well in the plate is 2000;
(§3) 4) placing the planted cell plate in the incubator at 37 DEG C. and incubating overnight;
(§4) 5) performing 3.16-fold gradient dilution on the compound at 9 concentration points;
(§5) 6) taking out the cell culture plate, and adding 10 μL/well of 10× concentration drug working solution to the corresponding wells of the cell culture plate, herein three replicate holes are made for each concentration, and the final drug action concentration is shown in the table below.
(§6) 7) placing the cell culture plate in the incubator and continuously incubating for 96 hours;
(§7) 8) placing the CellTiter 96@D AQueous One Solution reagent at the room temperature and thawing for 90 minutes or thawing in a water bath at 37 DEG C., and then equilibrating at the room temperature for 30 minutes;
(§8) 9) adding 20 μL/well of the CellTiter 96® AQueous One Solution reagent to the cell culture plate;
(§9) 10) placing the cell culture plate in the incubator at 37 DEG C. and continuously incubating for 3 hours;
(§10) 11) using the microplate reader to read a OD490 value of each well in the cell plate; and
(§11) 12) data processing and analysis.
(§12) GraphPad Prism5.0 software is used to process data graphically. In order to calculate the IC50, […] non-linear regression analysis is performed on the data to match a suitable dosage-effect curve. A calculation formula of the cell survival rate is as follows, the IC50 may be automatically calculated in the GraphPad Prism 5.0.
(§13) Cell survival rate (%)=(ODtest well−ODblank control)/(ODnegative control−ODblank control)×100%.
(§14) II. Experiment Device and Method Same as (II)

SKOV3 cells = assay: as above; format: cell-based, human
Procedure: as §1, §2, §3, §4, §5, §6, §7, §8, §9, §10, §11, §12, §13, §14

SGC7901 cells = assay: Cytotoxicity of RNAh-Biotin-quasar670-hdcp nanoparticles; format: cell-based
[3] = Electric potential (zeta potential) measurement of self-assembly products; format: physicochemical; conditions: result over 3 detections, at 25 DEG C.
Summary of the method: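 Self-assembled RNA or DNA nanoparticles dissolved in ultrapure water; zeta potential measured manually at 25 °C.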

HepG2 cells [4] = assay: CCK8 toxicity of DNA nanoparticles and carrier drugs; format: cell-based; conditions: HepG2, CCK8, 72 hours
Procedure: A CCK8 method is used to detect the toxicity of DNA nanoparticles and carrier drugs to HepG2.
2. A sample to be tested is diluted according to the following table and added: the original culture medium is removed and 100 μL of a culture medium of the sample to be tested with the different concentration is added, and there are 3 replicate wells in each group.
In the present embodiment, the loaded drug and the blank carrier are firstly prepared into 100 μM of stock solution using the PBS, and then diluted with the complete culture medium (biotin-free DMEM). The original drug doxorubicin is firstly prepared into 100 NM of stock solution by using the DMSO, and then diluted with the complete culture medium (biotin-free DMEM). The DMSO is directly diluted with the complete medium (biotin-free DMEM).
3. After the sample to be tested is added, the 96-well plate is placed in an incubator under 37 DEG C. and 5% CO2 and incubated for 72 hours.
4. A kit is taken out and melted at a room temperature, 10 μL of CCK-8 solution is added to each wall, or the CCK8 solution is nixed with the culture medium at a ratio of 1:9, and then added to the well in an amount of 100 μL/well.
5. It is continuously incubated in the cell incubator for 4 hours, and a length of time depends on experimental conditions such as a cell type and a el density.
6. A microplate reader is used to measure an absorbance at 450 nm.
7. Calculation: cell viability (%)=(OD experimental group−OD blank group)[…]/(OD control group−OD blank group), IC50 is calculated by GraphPad Prism 5.0.

HepG2 cells [5] = assay: Cell binding of DNA nanoparticles and carrier drugs by FACS; format: cell-based; conditions: incubated at 37 DEG C. for 2 h, flow cytometry
Procedure: 1. A cell state is adjusted to a logarithmic growth phase, the medium is changed into a medium without biotin and folic acid, and it is incubated overnight in an incubator at 37 DEG C.
2. After incubation, cell suspension is trypsinized and collected, and centrifuged at 1000 rpm for 5 min, after the concentration is adjusted, a 2×10^6-5×10^6 cell/EP tube is taken and washed twice with 1 mL/tube of 1% BSA-PBS, and cells at the bottom of the tube is observed to prevent them from being absorbed.
3. A substance to be tested is dissolved, and the substance to be tested is diluted to a use concentration.
4. Cell supernatant is absorbed, 100 μL of a corresponding sample is added to each tube in order, light is avoided, and it is incubated at 37 DEG C. for 2 h.
5. It is washed twice with 1% BSA-PBS; and centrifuged at 1000 rpm for 5 min.
6. Finally, it is precipitated with 300 μL of PBS cell resuspension, and flow Cytometric on-machine detection (the blank carrier used in the present embodiment is labeled by Quasar670, and the doxorubicin in the carrier drug has its own fluorescence, so the detection may be performed through FL4-APC and FL2-PE respectively) is performed.

[6] = TM value detection by solubility curve method (SYBR Green I); format: physicochemical; conditions: DNA nanoparticles
[7] = Particle size measurement (DLS hydrodynamic size); format: physicochemical; conditions: DLS hydrodynamic size
[8] = Drug loading rate of nucleic acid nanoparticles (chemical loading, absorbance standard curve); format: physicochemical; design: unit not given here; conditions: for doxorubicin loading rate: chemical loading method of Embodiment 5
[9] = highest administration concentration 10 μM

Molecule: CC(=O)Oc1ccccc1C(=O)O [aspirin]
- IC50 (SH-SY5Y cells [1]; Homo sapiens, SH-SY5Y, 72 hours, read-out: IC50, SH-SY5Y cell proliferation): 1.43 mM
- inhibition at 5 µM (SH-SY5Y cells [1]; Homo sapiens, SH-SY5Y, administration concentration 5 μM, 72 hours, read-out: cell inhibition rate, SH-SY5Y cells): 17.7%
- IC50 (SH-SY5Y cells [1]; Homo sapiens, SH-SY5Y, 72 h, CTG kit, read-out: IC50): 1.43 mM

Molecule: COc1cccc2c1C(=O)c1c(O)c3c(c(O)c1C2=O)C[C@@](O)(C(=O)CO)C[C@@H]3O[C@H]1C[C@H](N)[C@@H](O)[C@H](C)O1 [Epirubicin (EPB)]
- IC50 (HL60 cells; HL60, treatment time 72 h, CellTiter-Glo, read-out: IC50): 302 nM

Molecule: Nc1ccn([C@@H]2O[C@H](CO)[C@@H](O)C2(F)F)c(=O)n1 [gemcitabine]
- IC50 (BXPC3 cells; BXPC3, 72 h, read-out: IC50): 34.2 nM
- inhibition at 5 µM (BXPC3 cells; administration concentration 5 μM, read-out: cell inhibition rate, BxPC3 cells): 83%
- IC50 (BXPC3 cells; read-out: IC50, BxPC3 cell proliferation): 34.1 nM

Molecule: N.N.[Cl][Pt][Cl] [Cisplatin]
- inhibition rate to the SH-SY5Y cells (SH-SY5Y cells [1]; [9]): 99.81%
- inhibition rate to the HL60 cells (HL60 cells; [9]): 99.96%
- IC50 (SH-SY5Y cells [2]; highest administration concentration 5 μM): 510 nM
- inhibition rate to the MOLT4 cell proliferation (MOLT4 cells; maximum administration concentration 5 μm): 99.94%

Molecule: COc1cccc2c1C(=O)c1c(O)c3c(c(O)c1C2=O)C[C@@](O)(C(=O)CO)C[C@@H]3O[C@H]1C[C@H](N)[C@H](O[C@@H]2CCCCO2)[C@H](C)O1 [THP, pirarubicin]
- toxicity to SGC-7901 cells (SGC-7901 cells): toxic to the SGC-7901 cells
- IC50 (SGC-7901 cells; Homo sapiens, SGC-7901): 27.4 nM
- toxicity to SKOV3 cells (SKOV3 cells): toxic to the SKOV3 cells
- IC50 (SKOV3 cells; Homo sapiens, SK-OV-3, SKOV3): 23.7 nM

Molecule: CC[C@@]1(O)C(=O)OCc2c1cc1n(c2=O)Cc2cc3cc(O)ccc3nc2-1 [10-hydroxycamptothecin]
- Cell inhibition rate (%) when administration concentration is 5 μM (SGC7901 cells; SGC7901, 72 h, 5 μM): 75.43%
- cell inhibition rate (%), SGC7901 cells (SGC7901 cells; administration concentration 5 μM): 75.43%

Molecule: CN(Cc1cnc2nc(N)nc(N)c2n1)c1ccc(C(=O)N[C@@H](CCC(=O)O)C(=O)O)cc1 [MTX, methotrexate]
- effect on proliferation of MOLT4 cells (MOLT4 cells; 200 nM, 72 hours): significant inhibitory effect on the proliferation of the MOLT4 cells

Molecule: Nc1c2c(nc3ccccc13)CCCC2 [Tacrine, tacrine]
- cell proliferation rate (%) (SH-SY5Y cells [2]; 200 nM, 72 h): 39.75%

Molecule: CN(Cc1cnc2nc(N)nc(N)c2n1)c1ccc(C(=O)N[C@@H](CCC(=O)O)C(=O)O)cc1 [Methotrexate (MTX)]
- cell survival rate (%) (MOLT4 cells; MOLT-4, 72 h, 200 nM): 2.88%

B1: D-13: extension fragment deformation+core short-sequence DNA nanoparticle, SEQ ID NO: 156-158, 3′ biotin (nucleic acid)
chain 1: GCGGCGAGCGGCGACGAGCGTTGCGGCCGGAGGCCGG
chain 2: CCGGCCTCCGGCCGCTTCGCCGCCAGCCGCC
chain 3: GGCGGCAGGCGGCCATAGCCGTCGCCGCTCGCCGC
modifications: chain 1: DNA, 3' {Bio}, backbone not given here; chain 2: DNA, backbone not given here; chain 3: DNA, backbone not given here; three-strand DNA nanoparticle carrier
- Potential ZP, Experiment result [3]: −27.00 mV
- IC50 (HepG2 cells [4]): > 1000 nM
- Positive rate (HepG2 cells [5]; HepG2, 1 μM): 97.6%
- Positive rate (HepG2 cells [5]; HepG2, 2 μM): 98.2%
- TM value (° C.) [6]: 51.0 °C
- Mean particle size (nm) [7]: 7.012 nm
- doxorubicin loading rate [8]: 31.8

B2: D-14: extension fragment deformation+core short-sequence DNA nanoparticle, SEQ ID NO: 159-161, 3′ biotin (nucleic acid)
chain 1: GCGGCGAGCGGCGACGAGCGTTGCGGCCGGAGGCCGG
chain 2: CCGGCCTCCGGCCGCTTCGGCGCCAGCCGCC
chain 3: GGCGGCAGGCGCCCATAGCCGTCGCCGCTCGCCGC
modifications: chain 1: DNA, 3' {Biotin}, backbone not given here; chain 2: DNA, backbone not given here; chain 3: DNA, backbone not given here; three-strand DNA nanoparticle carrier
- Potential ZP, Experiment result [3]: −28.73 mV
- IC50 (HepG2 cells [4]): > 1000 nM
- Positive rate (HepG2 cells [5]; HepG2, 1 μM): 97.4%
- Positive rate (HepG2 cells [5]; HepG2, 2 μM): 98.3%
- TM value (° C.) [6]: 49.2 °C
- Mean particle size (nm) [7]: 6.896 nm
- daunorubicin loading rate ([8]; absorbance at 492 nm): 25.1
- doxorubicin loading rate [8]: 32
